These results are taken from patent US6903083B2, “Stabilized hydroxyvitamin D” (Bone Care International, Inc., priority 2000, dated 2005).

What all share (type): physicochemical
The nature of data set [1]: Storage stability testing of stabilized 24-hydroxyvitamin D2, long-term storage at −70° C., HPLC and UV (Example 11). The conditions noted are these: present-tense example. The procedure: The stability of samples from four lots of stabilized 24-Hydroxyvitamin D2 is examined at 6-month intervals during long-term storage at −70° C. All lots are stored in the container-closure system selected as packaging for the drug substance. Stability is assessed by examining samples for changes in (1) weight percent 24-OH-D2 content, (2) percent related substances content, and (3) impurity profile, using HPLC. In addition, all lots are examined for changes in UV spectrum by UV spectrophotometry.

Data set [2] can be described thus: Stability testing SHVD2 v. commercially available 1α-OH-D2, oven at about 60° C., HPLC (Example 7). The note with it: solid in test tube, present-tense example. The procedure: Approximately 1 mg of SHVD2 or commercial 1α-hydroxyvitamin D2 is placed in each of 2 (12×75 mm) test tubes. One test tube from each of the two preparations is placed in an oven at about 60° C. For analysis, the contents in each test tube are dissolved in ethanol to produce a 1 mg/mL solution. Each solution (10 μL) is analyzed by the following HPLC conditions: a YMC Pack C8 column (4.6×250 mm, 5 μm) with a mobile phase of acetonitrile: methanol: water (60:20:20) at a flow rate of 1.0 mL/min.

Data set [3] can be described thus: Storage stability testing of SHVD2, long-term storage at −70° C., HPLC and UV. The procedure: The stability of samples from four lots of SHVD2 was examined at 6-month intervals during long-term storage at −70° C. All lots were stored in the container-closure system selected as packaging for the drug substance. Stability was assessed by examining samples for changes in (1) weight percent 1α-OH-D2 content, (2) percent related substances content, and (3) impurity profile, using HPLC. In addition, all lots were examined for changes in UV spectrum by UV spectrophotometry.

Data set [4] is described as follows: Stability testing SHVD2 v. non-SHVD2 (ethanol vapour exposed), 60° C. for 48 hours, HPLC (Example 8). The conditions noted are these: non-SHVD2 made by exposure to ethanol vapors. The method, then:
Approximately 1 mg of stabilized 1α-hydroxyvitamin D2 (doxercalciferol) (SHVD2) was placed in each of two test tubes (12×75 mm). One sample was placed in a dessicator containing an atmosphere of ethanol vapors to increase the residual solvent content of the material to form non-stabilized doxercalciferol (non-SHVD2). The material in the dessicator was heated at 60° C. for 48 hours. The other sample was not subjected to the ethanol atmosphere, thereby retaining its stabilized form, but was heated at 60° C. for 48 hours. The contents in each test tube were dissolved in ethanol to produce a 1 mg/mL solution. Each solution (10 μL) was analyzed by the following HPLC conditions: a YMC Pack C8 column (4.6×250 mm, 5 μm) with a mobile phase of acetonitrile: methanol: water (60:20:20) at a flow rate of 1.0 mL/min.

The nature of data set [5]: Stability testing SHVD2 v. non-SHVD2, oven at about 60° C., HPLC (Example 6). The note with it: 0 to 48 hours, solid in test tube, present-tense example. The procedure: Approximately 1 mg of SHVD2 or non-stabilized 1α-hydroxyvitamin D2 (non-SHVD2) is placed in each of 9 (12×75 mm) test tubes. The test tubes are placed in an oven at about 60° C. One test tube of each of the two vitamin D2 preparations is removed at 0, 3, 6, 9, 12, 18, 24, 36 and 48 hours of incubation. The contents in each test tube are dissolved in ethanol to produce a 1 mg/mL solution. Each solution (10 μL) is analyzed by the following HPCL conditions: a YMC Pack C8 column (4.6×250 mm, 5 μm) with a mobile phase of acetonitrile: methanol: water (60:20:20) at a flow rate of 1.0 mL/min.

The nature of data set [6]: Stability testing of 1α,24(S)-dihydroxyvitamin D2 containing >0.5% residual solvents, 60° C. for 48 hours, HPLC (Example 9). The conditions noted are these: capped vial. The method, then: Approximately 1 mg of 1α,24(S)-dihydroxyvitamin D2 containing >0.5% residual solvents (non-SHVD) was placed in a capped vial and heated at 60° C. for 48 hours. The contents of the vial were dissolved in ethanol to produce a 1 mg/mL solution. The solution (10 μL) was analyzed by the following HPLC conditions: a YMC Pack Pro C18 column (4.6×150 mm, 5 μm) with a mobile phase of acetonitrile: water (50:50) at a flow rate of 1.0 mL/min.

Take `C=C1CC[C@H](O)C/C1=C/C=C1\CCC[C@]2(C)[C@@H]([C@H](C)/C=C/C(C)(O)C(C)C)CC[C@@H]12` (stereo partly drawn) [stabilized 24-Hydroxyvitamin D2, 24-hydroxyvitamin D2]: the “impurity profile chromatography, new peaks relative to baseline” value in data set [1] (6 or 12 months) is on record as “no new peaks”. Besides, in data set [1] (all four lots, all time points), the “weight % 24-OH-D2 content” value was above 98.0%. In data set [1] (baseline to 12 months), this compound displayed a percent related substances below 2.0%. Also, the “differences in mean weight % 24-OH-D2 content between baseline and 6 or 12 months” value in data set [1] was “No significant differences”.

Regarding `C=C1/C(=C\C=C2/CCC[C@]3(C)[C@@H]([C@H](C)/C=C/[C@H](C)C(C)C)CC[C@@H]23)C[C@@H](O)C[C@@H]1O` [commercial 1α-hydroxyvitamin D2, 1α-hydroxyvitamin D2], in data set [2], the “rate of appearance of the peak with relative retention time of approximately 0.9 compared with the 1α-hydroxyvitamin D2 peak” value is on record as “greater with the commercial 1α-hydroxyvitamin D2 than with SHVD2”.

For the compound `C=C1/C(=C\C=C2/CCC[C@]3(C)[C@@H]([C@H](C)/C=C/[C@H](C)C(C)C)CC[C@@H]23)C[C@@H](O)C[C@@H]1O` [SHVD2, 1α-hydroxyvitamin D2], the “impurity profile chromatography, new peaks relative to baseline” value in data set [3] (6 or 12 months) is listed as “no new peaks”. Further, in data set [3] (all four lots, all time points (baseline, 6, 12 months), HPLC), the “weight % 1α-OH-D2 content” value was above 98.0%. Also, in data set [3] (baseline to 12 months, HPLC), the percent related substances is on record as below 2.0%. In addition, the “differences in mean weight % 1α-OH-D2 content between baseline and 6 or 12 months” value in data set [3] (four lots) is listed as “no significant differences”.

Regarding `C=C1/C(=C\C=C2/CCC[C@]3(C)[C@@H]([C@H](C)/C=C/[C@H](C)C(C)C)CC[C@@H]23)C[C@@H](O)C[C@@H]1O` [non-SHVD2, 1α-hydroxyvitamin D2], the “rate of appearance of the peak with relative retention time of approximately 0.9 compared with the doxercalciferol peak” value in data set [4] is recorded as “greater with the non-SHVD2 material than with SHVD2”. For the same compound, in data set [5], the “rate of appearance of the peak with relative retention time of approximately 0.9 compared with the 1α-hydroxyvitamin D2 peak” value is “greater with the non-SHVD2 than with SHVD2”.

For the compound `C=C1/C(=C\C=C2/CCC[C@]3(C)[C@@H]([C@H](C)/C=C/[C@@](C)(O)C(C)C)CC[C@@H]23)C[C@@H](O)C[C@@H]1O` [1α,24(S)-dihydroxyvitamin D2], the “appearance of a new compound by HPLC after heating” value in data set [6] was “a compound with a relative retention time of approximately 0.85 compared with standard 1α,24(S)-dihydroxyvitamin D2 was observed”.
